Test results as given in patent US20100280120A1, “COMPOUND INDUCING ANGIOGENESIS RESPONSE IN ISCHAEMIC TISSUES” (Green Cross Therapeutics Private Limited, priority 2007, published 2010).

Key:
[1] = test system: binding of human VEGF to its receptor on A549 cells; assay: Angiogenic potential: binding of human VEGF to its receptors on A549 cells (anti-VEGF immunofluorescence, confocal); format: cell-based
Procedure: The angiogenic potential of compound was tested by binding human VEGF to its putative receptors. Human lung epithelial cells (A549 which are highly metastatic and therefore angiogenic in nature) were grown on coverslip in DMEM/F-12 (1:1) or RPMI 1640 media supplemented with 10% FBS, insulin (0.1 units/ml), L-glutamine (2 mM), sodium pyruvate (100 μg/ml), non-essential amino acids (100 μM), penicillin (100 units/ml) and streptomycin ([…]). Cells were incubated at 37° C. in a humidified atmosphere of 5% CO2. The pH of the medium was maintained at 6.2 for the binding assay of VEGF to its receptor in the presence of compound. The cells were pre-treated with media alone or with 25 μg/ml compound for 30 min. The cells were then incubated with 10 ng/ml human VEGF for further 30 min at 37° C. in a humidified atmosphere of 5% CO2. The cells were fixed and stained with anti-VEGF antibody coupled with Alexaflour 488. The cells were visualized in Zeiss-confocal microscope.

[2] = test system: primary cells or cell lines from various origin (human cell lines); assay: In vitro toxicity screening of primary cells or cell lines, Trypan blue-exclusion viability test; format: cell-based
Procedure: To study the toxic effects of compound, a wide spectrum of primary cells or cell lines from various origin were screened for viability, using Trypan blue-exclusion test. Cells were grown in cultures in DMEM/F-12 (1:1) or RPMI 1640 media supplemented with 10% FBS, insulin (0.1 units/ml), L-glutamine (2 mM), sodium pyruvate (100 μg/ml), non-essential amino acids (100 μM), penicillin (100 units/ml) and streptomycin ([…]). Cells were incubated at 37° C. in a humidified atmosphere of 5% CO2.
Different cells from different origins were cultured in vitro. Various doses of GC-S were added in culture medium. After 24 h number of surviving cells was counted. Each experiment was performed in triplicate and the values agreed well with those of independent experiments

[3] = test system: Swiss albino mice; assay: Systemic toxicity in mice: serum toxicity marker enzymes (GOT, GPT, ALP); conditions: doxorubicin 5 mg/kg body weight
Procedure: All animal experiments were performed following ‘Principles of laboratory animal care’ (NIH publication No. 85-23, revised in 1985) as well as specific Indian laws on ‘Protection of Animals’ under the provision o authorized investigators. Swiss albino mice (˜20 g each; 10-12 weeks old; 3 mice in each group) were randomly divided into (i) untreated set (i.v. injected with PBS as vehicle only) and (ii) drug-treated set (Compound of this invention 0.1, 0.3, 1.0, 3.0, 10 and 30 mg/kg body weight) for 14 days. Untreated mice received sterile PBS as carrier vehicle. Doxorubicin (5 mg/kg body weight) was used as positive control for toxicity assays.
For statistical analysis, one-way analysis of variance (ANOVA) was conducted, followed by the Newman-Keuls multiple comparison test. Mean differences with p<0.05 were considered statistically significant.
Hepato and cardio toxicity due to drug regimens are the shortfall in many instances. The serum levels of GOT, GPT and ALP are clinical indicators of drug-induced toxicity. Blood samples were collected from the retro-orbital plexus of normal and the subject compound-treated mice. Total serum glutamate oxaloacetate transaminase ([…]), glutamate pyruvate transaminase (SGPT), and alkaline phosphate were assayed according to standard protocols.
Serum GOT, GPT and ALP activities as a marker of systemic toxicity were measured from blood of untreated or treated mice.

Compound: NCCCCC(N)C(=O)O (stereo not drawn) [Compound of this invention]
- Increase of binding of VEGF to its receptor ([1]; A549 cells pre-incubated with 25 μg/ml compound 30 min, then 10 ng/ml human VEGF 30 min, pH 6.2): 10-15 times
- VEGF binding on the membrane of normal A549 cell after compound treatment ([1]; A549 cells, compound alone, no added VEGF): remains unaltered
- Toxicity to cells ([2]; 100 and 200 μg/mL doses, below significant killing): mild toxicity
- Toxic effects on cells ([2]; doses 12.5 to 200 μg/mL range): no toxic effects
- Percent of cell killing ([2]; up to 50 μg/mL doses, 24 h, Trypan blue exclusion): less than 5%

Compound: COc1cccc2c1C(=O)c1c(O)c3c(c(O)c1C2=O)C[C@@](O)(C(=O)CO)C[C@@H]3O[C@H]1C[C@H](N)[C@H](O)[C@H](C)O1 [Doxorubicin]
- ALP [3]: 43 KA units
- SGOT [3]: 79 IU/dL
- SGPT [3]: 68 IU/dL
- Levels of serum GOT and GPT ([3]; positive control, p<0.05): significantly increased
